Results: PubChem BioAssay AID256 (DTP/NCI, 2004)
Where “and” joins values, the source holds several entries; their conditions need not be identical. Identical values can stand only once. Toxic doses and inconclusive results are not listed.

System: CD2F1 mice, L1210 leukemia ip, survival T/C
Assay: NCI In Vivo Anticancer Drug Screen. Data for tumor model L1210 Leukemia (intraperitoneal) in CD2F1 (CDF1) mice
Conditions: higher = longer survival
How it was run: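 In this screen, transplantable tumors were grown in mice given either the compound or its vehicle. Results were expressed as the treated measurement relative to the control measurement.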

[1] = endpoint: mean survival time, dose: 100.0 mg/kg/injection, schedule: Q01DX009 (ip), vehicle: saline with Tween-80
[2] = endpoint: mean survival time, dose: 200.0 mg/kg/injection, schedule: Q01DX009 (ip), vehicle: saline with Tween-80
[3] = endpoint: mean survival time, dose: 400.0 mg/kg/injection, schedule: Q01DX009 (ip), vehicle: saline with Tween-80
[4] = endpoint: mean survival time, dose: 100.0 mg/kg/injection, schedule: Q04DX003 (ip), vehicle: saline with Tween-80
[5] = endpoint: mean survival time, dose: 200.0 mg/kg/injection, schedule: Q04DX003 (ip), vehicle: saline with Tween-80
[6] = endpoint: mean survival time, dose: 400.0 mg/kg/injection, schedule: Q04DX003 (ip), vehicle: saline with Tween-80

With `CCc1c(CNc2ccc(C(=O)NC(CC(=O)O)C(=O)O)cc2)ccc2nc(N)nc(N)c12` (stereo unspecified) the T/C (endpoint: mean survival time, dose: 0.25 mg/kg/injection, schedule: Q01DX001 (ip), vehicle: saline) was 105 % of control, the T/C (endpoint: mean survival time, dose: 0.5 mg/kg/injection, schedule: Q01DX001 (ip), vehicle: saline) was 114 % of control and the T/C (endpoint: mean survival time, dose: 1.0 mg/kg/injection, schedule: Q01DX001 (ip), vehicle: saline) was 119 % of control. The T/C (endpoint: mean survival time, dose: 4.0 mg/kg/injection, schedule: Q01DX001 (ip), vehicle: saline) was 163 % of control.

In the case of `C=C1C(C)C2C(Cc3ccccc3)NC(=O)C23C(OC(C)=O)/C=C/C(C)(O)CC(C)C/C=C/C3C1O` (stereo unspecified), the T/C (endpoint: mean survival time, dose: 0.37 mg/kg/injection, schedule: Q01DX009 (ip), vehicle: Klucel (hydroxypropylcellulose) (HPC)) is reported as 95 % of control, the T/C (endpoint: mean survival time, dose: 0.75 mg/kg/injection, schedule: Q01DX009 (ip), vehicle: Klucel (hydroxypropylcellulose) (HPC)) is reported as 100 % of control and the T/C (endpoint: mean survival time, dose: 1.5 mg/kg/injection, schedule: Q01DX009 (ip), vehicle: Klucel (hydroxypropylcellulose) (HPC)) is reported as 96 % of control. The T/C (endpoint: mean survival time, dose: 3.0 mg/kg/injection, schedule: Q01DX009 (ip), vehicle: Klucel (hydroxypropylcellulose) (HPC)) was 96 % of control, the T/C (endpoint: mean survival time, dose: 6.0 mg/kg/injection, schedule: Q01DX009 (ip), vehicle: Klucel (hydroxypropylcellulose) (HPC)) was 105 % of control and the T/C (endpoint: mean survival time, dose: 12.0 mg/kg/injection, schedule: Q01DX009 (ip), vehicle: Klucel (hydroxypropylcellulose) (HPC)) was 105 % of control. For the same compound, the T/C (endpoint: mean survival time, dose: 375.0 micrograms/kg/injection, schedule: Q01DX009 (ip), vehicle: Klucel (hydroxypropylcellulose) (HPC)) was 106 % of control, the T/C (endpoint: mean survival time, dose: 750.0 micrograms/kg/injection, schedule: Q01DX009 (ip), vehicle: Klucel (hydroxypropylcellulose) (HPC)) was 96 % of control and the T/C (endpoint: mean survival time, dose: 1500.0 micrograms/kg/injection, schedule: Q01DX009 (ip), vehicle: Klucel (hydroxypropylcellulose) (HPC)) was 104 % of control. The T/C (endpoint: mean survival time, dose: 3000.0 micrograms/kg/injection, schedule: Q01DX009 (ip), vehicle: Klucel (hydroxypropylcellulose) (HPC)) was 101 % of control and the T/C (endpoint: mean survival time, dose: 6000.0 micrograms/kg/injection, schedule: Q01DX009 (ip), vehicle: Klucel (hydroxypropylcellulose) (HPC)) was 96 % of control.

In the case of `CC1([N+](=O)[O-])COC(c2ccc(Cl)cc2)OC1` (stereo unspecified), the T/C (endpoint: mean survival time, dose: 100.0 mg/kg/injection, schedule: Q04DX003 (ip), vehicle: Klucel (hydroxypropylcellulose) (HPC)) is reported as 96 % of control and the T/C (endpoint: mean survival time, dose: 200.0 mg/kg/injection, schedule: Q04DX003 (ip), vehicle: Klucel (hydroxypropylcellulose) (HPC)) is reported as 104 % of control.

`Cc1ccc(S(=O)(=O)Nc2ccccc2-c2nc3ccc(C)cc3c(=O)o2)cc1` was tested, and the T/C [1] was 100 % of control, the T/C [2] was 91 % of control and the T/C [3] was 96 % of control.

`CC(=O)Nc1nnc(-c2ccc([N+](=O)[O-])o2)s1` was tested, and the T/C (endpoint: mean survival time, dose: 75.0 mg/kg/injection, schedule: Q04DX003 (ip), vehicle: saline) was 97 % of control, the T/C (endpoint: mean survival time, dose: 150.0 mg/kg/injection, schedule: Q04DX003 (ip), vehicle: saline) was 100 % of control and the T/C (endpoint: mean survival time, dose: 300.0 mg/kg/injection, schedule: Q04DX003 (ip), vehicle: saline) was 97 % of control.

In the case of `CC1CCC(C(O)(C(=O)c2ccccc2)c2ccccc2)C(=O)C1` (stereo unspecified), the T/C [1] is reported as 100 % of control, the T/C [2] is reported as 98 % of control and the T/C [3] is reported as 98 % of control.

In the case of `CCNC(=O)C(C)Br` (stereo unspecified), the T/C (endpoint: mean survival time, dose: 100.0 mg/kg/injection, schedule: Q01DX001 (ip), vehicle: saline) is reported as 97 % of control and the T/C (endpoint: mean survival time, dose: 200.0 mg/kg/injection, schedule: Q01DX001 (ip), vehicle: saline) is reported as 106 % of control.

`COc1cccc(CN2CCN(N=O)CC2)c1` was tested, and the T/C (endpoint: mean survival time, dose: 12.5 mg/kg/injection, schedule: Q01DX009 (ip), vehicle: Klucel (hydroxypropylcellulose) (HPC)) was 98 % of control, the T/C (endpoint: mean survival time, dose: 25.0 mg/kg/injection, schedule: Q01DX009 (ip), vehicle: Klucel (hydroxypropylcellulose) (HPC)) was 93 % of control and the T/C (endpoint: mean survival time, dose: 50.0 mg/kg/injection, schedule: Q01DX009 (ip), vehicle: Klucel (hydroxypropylcellulose) (HPC)) was 103 % of control. For the same compound, the T/C (endpoint: mean survival time, dose: 100.0 mg/kg/injection, schedule: Q01DX009 (ip), vehicle: Klucel (hydroxypropylcellulose) (HPC)) was 103 % of control, the T/C (endpoint: mean survival time, dose: 200.0 mg/kg/injection, schedule: Q01DX009 (ip), vehicle: Klucel (hydroxypropylcellulose) (HPC)) was 101 % of control and the T/C (endpoint: mean survival time, dose: 400.0 mg/kg/injection, schedule: Q01DX009 (ip), vehicle: Klucel (hydroxypropylcellulose) (HPC)) was 93 % of control.

`Cc1cccc(OCC(O)CN2CC2)c1` (stereo unspecified) was tested, and the T/C (endpoint: median survival time, dose: 12.5 mg/kg/injection, schedule: Q01DX005 (ip), vehicle: saline with Tween-80) was 97 % of control and 107 % of control, the T/C (endpoint: median survival time, dose: 25.0 mg/kg/injection, schedule: Q01DX005 (ip), vehicle: saline with Tween-80) was 115 % of control and 111 % of control and the T/C (endpoint: median survival time, dose: 36.0 mg/kg/injection, schedule: Q01DX005 (ip), vehicle: saline with Tween-80) was 104 % of control. The T/C (endpoint: median survival time, dose: 50.0 mg/kg/injection, schedule: Q01DX005 (ip), vehicle: saline with Tween-80) was 113 % of control and 108 % of control, the T/C (endpoint: median survival time, dose: 60.0 mg/kg/injection, schedule: Q01DX005 (ip), vehicle: saline with Tween-80) was 113 % of control and the T/C (endpoint: median survival time, dose: 100.0 mg/kg/injection, schedule: Q01DX005 (ip), vehicle: saline with Tween-80) was 106 % of control. The T/C (endpoint: median survival time, dose: 166.66 mg/kg/injection, schedule: Q01DX005 (ip), vehicle: saline with Tween-80) was 110 % of control.

For `CCC1(CC)CCC(Br)C(Br)C1` (stereo unspecified), the T/C [1] was 94 % of control, the T/C [4] was 95 % of control and the T/C [2] was 94 % of control. The T/C [5] was 98 % of control, the T/C [3] was 89 % of control and the T/C [6] was 93 % of control.

For `N#CS.[Co+3].[NH-]CC[NH-].[NH-]CC[NH-].[NH-]CC[SH2+]`, the T/C (endpoint: mean survival time, dose: 100.0 mg/kg/injection, schedule: Q04DX002 (ip), vehicle: saline) was 112 % of control, the T/C (endpoint: mean survival time, dose: 200.0 mg/kg/injection, schedule: Q04DX002 (ip), vehicle: saline) was 104 % of control and the T/C (endpoint: mean survival time, dose: 400.0 mg/kg/injection, schedule: Q04DX002 (ip), vehicle: saline) was 108 % of control.

In the case of `O=C(N/N=C\c1ccc(Cl)cc1)c1ccccc1`, the T/C (endpoint: mean survival time, dose: 50.0 mg/kg/injection, schedule: Q01DX009 (ip), vehicle: saline with Tween-80) is reported as 94 % of control, the T/C [1] is reported as 101 % of control and the T/C [2] is reported as 95 % of control.

In the case of `CC1(C)CC(Cc2ccccc2)C(=O)c2ccccc21` (stereo unspecified), the T/C [4] is reported as 94 % of control, the T/C [5] is reported as 92 % of control and the T/C [6] is reported as 94 % of control.

`O=NN(CCSCCCCl)C(=O)NC1CCCCC1` was tested, and the T/C (endpoint: mean survival time, dose: 6.25 mg/kg/injection, schedule: Q01DX001 (ip), vehicle: distilled water + Tween-80) was 96 % of control, the T/C (endpoint: mean survival time, dose: 12.5 mg/kg/injection, schedule: Q01DX001 (ip), vehicle: distilled water + Tween-80) was 96 % of control and the T/C (endpoint: mean survival time, dose: 25.0 mg/kg/injection, schedule: Q01DX001 (ip), vehicle: distilled water + Tween-80) was 101 % of control. The T/C (endpoint: mean survival time, dose: 50.0 mg/kg/injection, schedule: Q01DX001 (ip), vehicle: distilled water + Tween-80) was 102 % of control, the T/C (endpoint: mean survival time, dose: 100.0 mg/kg/injection, schedule: Q01DX001 (ip), vehicle: distilled water + Tween-80) was 101 % of control and the T/C (endpoint: mean survival time, dose: 200.0 mg/kg/injection, schedule: Q01DX001 (ip), vehicle: distilled water + Tween-80) was 102 % of control. The T/C (endpoint: mean survival time, dose: 400.0 mg/kg/injection, schedule: Q01DX001 (ip), vehicle: distilled water + Tween-80) was 118 % of control.

With `Cc1ccc(NC(=O)N(C)N=O)cc1` the T/C (endpoint: mean survival time, dose: 89.0 mg/kg/injection, schedule: Q01DX001 (ip), vehicle: other) was 89 % of control, the T/C (endpoint: mean survival time, dose: 133.0 mg/kg/injection, schedule: Q01DX001 (ip), vehicle: other) was 87 % of control and the T/C (endpoint: mean survival time, dose: 200.0 mg/kg/injection, schedule: Q01DX001 (ip), vehicle: other) was 89 % of control. For the same compound, the T/C (endpoint: mean survival time, dose: 300.0 mg/kg/injection, schedule: Q01DX001 (ip), vehicle: other) was 93 % of control.

`Cc1nc2c(ncn2C2OC3COP(=O)(O)OC3C2O)c2nccn12` (stereo unspecified) was tested, and the T/C (endpoint: mean survival time, dose: 12.5 mg/kg/injection, schedule: Q01DX005 (ip), vehicle: water) was 95 % of control, the T/C (endpoint: mean survival time, dose: 25.0 mg/kg/injection, schedule: Q01DX005 (ip), vehicle: water) was 100 % of control and the T/C (endpoint: mean survival time, dose: 50.0 mg/kg/injection, schedule: Q01DX005 (ip), vehicle: water) was 90 % of control. The T/C (endpoint: mean survival time, dose: 100.0 mg/kg/injection, schedule: Q01DX005 (ip), vehicle: water) was 106 % of control.

With `NC(=S)N/N=C/c1ccc(OC(F)(F)F)cn1` the T/C (endpoint: mean survival time, dose: 1.56 mg/kg/injection, schedule: Q01DX009 (ip), vehicle: other) was 104 % of control, the T/C (endpoint: mean survival time, dose: 3.13 mg/kg/injection, schedule: Q01DX009 (ip), vehicle: other) was 100 % of control and the T/C (endpoint: mean survival time, dose: 6.25 mg/kg/injection, schedule: Q01DX009 (ip), vehicle: other) was 108 % of control. For the same compound, the T/C (endpoint: mean survival time, dose: 12.5 mg/kg/injection, schedule: Q01DX009 (ip), vehicle: other) was 118 % of control, the T/C (endpoint: mean survival time, dose: 25.0 mg/kg/injection, schedule: Q04DX002 (ip), vehicle: other) was 89 % of control and the T/C (endpoint: mean survival time, dose: 50.0 mg/kg/injection, schedule: Q04DX002 (ip), vehicle: other) was 104 % of control. For the same compound, the T/C (endpoint: mean survival time, dose: 100.0 mg/kg/injection, schedule: Q04DX002 (ip), vehicle: other) was 115 % of control.

For `CCOC(=O)c1c(-c2ccccc2)csc1NC(=O)CBr`, the T/C (endpoint: mean survival time, dose: 75.0 mg/kg/injection, schedule: Q01DX001 (ip), vehicle: saline) was 106 % of control, the T/C (endpoint: mean survival time, dose: 150.0 mg/kg/injection, schedule: Q01DX001 (ip), vehicle: saline) was 101 % of control and the T/C (endpoint: mean survival time, dose: 300.0 mg/kg/injection, schedule: Q01DX001 (ip), vehicle: saline) was 98 % of control.
